Test results taken from paper PMC10254235, “Design, Synthesis, and Anti-Cervical Cancer and Reversal of Tumor Multidrug Resistance Activity of Novel Nitrogen-Containing Heterocyclic Chalcone Derivatives” (Molecules, 2023).
Like-named read-outs stand apart in the source and are kept apart here.

What was measured:
HeLa cells = assay: MTT antiproliferative assay, HeLa cells; format: cell-based, human; conditions: Homo sapiens, 48 h
Protocol: (§1) HeLa and SiHa cell lines were obtained from the Procell Life Science Technology Co., Ltd. (Wuhan, China); H8 cell line was obtained from the Shanghai HonSun Biological Technology Co., Ltd. (Shanghai, China); HUVEC cell line was obtained from the Saibaikang (Shanghai) Biotechnology Co., Ltd. (Shanghai, China); HeLa/DDP cell line was obtained from the Guangzhou Jenniobio Biotechnology Co., Ltd. (Guangzhou, China). HeLa, SiHa, H8, and HeLa/DDP cells were cultured in DMEM medium (HyClone). The VEGF of 50 ng/mL was used as the promoter of the VEGFR-2 receptor on HUVEC cell membrane surfaces, and their inhibitory effects on VEGFR-2 were determined. All the mediums were supplemented with 10% FBS (HyClone, GE Healthcare, Australia). Cells were maintained at subconfluency at 37 °C in humidified air containing 5% CO2. The cells were monitored daily and maintained at 80% cell density. All compounds tested were dissolved in DMSO and then diluted by the culture medium before the treatment of cultured cells. Identification reports are available for all types of cell lines involved in this study.
(§2) The cytotoxicity of the target compounds were measured in vitro using the MTT assay. Cells grown in the logarithmic phase were counted and seeded in 96-well cell culture plates (5 × 10^3 cells per well) for 24 h to allow attachment of cells to the wall of the plate. […] Next, 20 μL of 5 mg.mL^−1 MTT solution was added to each well and cultured for 4 h. The old solution was discarded, replaced with 150 μL DMSO solution per well, and shaken for 10 min. The OD value was measured under 490 nm, and the inhibition rate was calculated. The nonlinear regression fitting of the cell growth rate was carried out using SPSS 23.0 software, and the IC50 of the compound was calculated. […] There were 6 compound holes in each group, and the experimental results were presented as the average of 3 experiments. A complete medium containing only cells was used as the blank control, whereas a complete medium without cells was the negative control group. Cisplatin and sorafenib were utilized as the positive control group, and the target compound was the experimental intervention group.

HeLa/DDP cells = assay: MTT assay, cisplatin-resistant HeLa/DDP cells; format: cell-based, human; conditions: single agent; for RI (resistance index): HeLa/DDP versus HeLa; for IC50: Homo sapiens, cisplatin-resistant HeLa/DDP cells, 48 h, read-out: 48h IC50 HeLa/DDP
Protocol: The cytotoxicity of the target compounds were measured in vitro using the MTT assay. Cells grown in the logarithmic phase were counted and seeded in 96-well cell culture plates (5 × 10^3 cells per well) for 24 h to allow attachment of cells to the wall of the plate. […] Next, 20 μL of 5 mg.mL^−1 MTT solution was added to each well and cultured for 4 h. The old solution was discarded, replaced with 150 μL DMSO solution per well, and shaken for 10 min. The OD value was measured under 490 nm, and the inhibition rate was calculated. The nonlinear regression fitting of the cell growth rate was carried out using SPSS 23.0 software, and the IC50 of the compound was calculated. […] A complete medium containing only cells was used as the blank control, whereas a complete medium without cells was the negative control group.
To reduce the adverse reactions caused by the fixation of drug resistance reversal agents, the concentration that reduces the proliferation rate of tumor cells by less than 10% was selected.

H8 cells = assay: MTT cytotoxicity assay, normal cervical epithelial H8 cells; format: cell-based, human; conditions: Homo sapiens, 48 h, mean ± SD
Protocol: as §1, §2

SiHa cells = assay: MTT antiproliferative assay, SiHa cells; format: cell-based, human; conditions: Homo sapiens, 48 h, mean ± SD
Protocol: as §1, §2

VEGFR-2 [1] = biological target: T1, VEGFR-2 (Homo sapiens, UniProt P35968); assay: VEGFR-2 inhibition test (human p-VEGFR-2 ELISA in HeLa cells); format: cell-based; conditions: ± SD, read-out: 48h IC50 VEGFR-2 inhibitory effect
T1 construct: endogenous in cells; host or cells: HeLa cells
T1 sequence (P35968 20-1356): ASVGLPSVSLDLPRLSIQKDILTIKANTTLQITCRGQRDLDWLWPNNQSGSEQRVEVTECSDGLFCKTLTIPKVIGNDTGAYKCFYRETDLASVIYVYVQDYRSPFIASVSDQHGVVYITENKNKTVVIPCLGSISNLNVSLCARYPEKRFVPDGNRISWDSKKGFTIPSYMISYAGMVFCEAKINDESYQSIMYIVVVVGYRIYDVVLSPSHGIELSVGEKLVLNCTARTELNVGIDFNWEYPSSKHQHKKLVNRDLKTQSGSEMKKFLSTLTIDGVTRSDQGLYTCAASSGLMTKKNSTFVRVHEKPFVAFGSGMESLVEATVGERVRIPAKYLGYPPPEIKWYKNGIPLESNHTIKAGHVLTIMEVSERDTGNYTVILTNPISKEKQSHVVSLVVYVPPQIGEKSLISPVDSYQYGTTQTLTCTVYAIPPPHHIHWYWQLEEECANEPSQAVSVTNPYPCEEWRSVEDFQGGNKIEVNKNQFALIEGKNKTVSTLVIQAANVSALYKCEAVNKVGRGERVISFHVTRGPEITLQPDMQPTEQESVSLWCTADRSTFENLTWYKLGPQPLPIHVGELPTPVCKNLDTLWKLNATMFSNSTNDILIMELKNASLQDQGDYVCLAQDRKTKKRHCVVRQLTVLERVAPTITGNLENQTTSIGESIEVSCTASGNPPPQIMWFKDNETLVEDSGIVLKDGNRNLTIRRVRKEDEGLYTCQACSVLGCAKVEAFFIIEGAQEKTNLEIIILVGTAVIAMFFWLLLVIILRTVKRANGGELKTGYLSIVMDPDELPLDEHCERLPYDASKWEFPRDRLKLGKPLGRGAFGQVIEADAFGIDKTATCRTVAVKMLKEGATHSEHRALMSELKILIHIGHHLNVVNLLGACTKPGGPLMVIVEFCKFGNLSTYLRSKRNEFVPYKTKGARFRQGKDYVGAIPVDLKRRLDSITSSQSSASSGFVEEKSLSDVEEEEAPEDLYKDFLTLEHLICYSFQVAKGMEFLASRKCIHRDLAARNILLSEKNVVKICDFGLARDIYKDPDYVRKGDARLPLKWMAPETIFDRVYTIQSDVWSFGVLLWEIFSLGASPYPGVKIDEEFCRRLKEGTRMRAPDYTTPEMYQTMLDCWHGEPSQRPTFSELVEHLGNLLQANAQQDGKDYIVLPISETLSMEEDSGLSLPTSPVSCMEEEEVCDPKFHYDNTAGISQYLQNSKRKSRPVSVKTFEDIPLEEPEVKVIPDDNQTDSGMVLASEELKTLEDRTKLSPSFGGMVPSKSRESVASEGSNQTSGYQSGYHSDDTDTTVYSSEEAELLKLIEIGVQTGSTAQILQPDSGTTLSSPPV
Protocol: Specimens, standards, and HRP-labeled detection antibodies were added sequentially to the pre-covered microtiter wells containing phosphorylated vascular endothelial growth factor receptor 2 (p-VEGFR2) antibodies, warmed, and washed thoroughly. The substrate TMB was added for color development. This substrate is converted to blue using peroxidase catalysis to a final yellow color due to the action of acid. […] Curve fitting was performed using SPSS 23.0 software to calculate IC50.

HUVEC cells = assay: In vitro HUVEC inhibitory assay (MTT); format: cell-based; conditions: Homo sapiens, 48 h, ± SD
Protocol: as §1, §2
After incubation for 24 h, the cell was collected using centrifugation and washed twice using PBS chilled to 0 °C. Then, the cells were homogenized in RIPA lysis buffer and 1% PMSF, 1% mixed phosphatase inhibitor (Solarbio, Beijing, China). The lysates were incubated on ice for 30 min, intermittently vortexed every 5 min, and centrifuged at 12,000 rpm for 20 min to harvest the supernatants.

VEGFR-2 [2] = conditions: read-out: IC50 against VEGFR-2; cited from earlier work
HepG2 cells = conditions: cited from earlier work
PC-3 cells = conditions: cytotoxic effect; cited from earlier work
MCF-7 cells = conditions: cytotoxic effect; cited from earlier work
[3] = MTT, mean ± SD, read-out: 48h IC50 HeLa
[4] = single agent, read-out: 48h IC50 HeLa (Table 4)

With `COc1cc(O)c(C(=O)/C=C/c2ccc(CN3CCC(C)CC3)cc2)cc1CN1CCCC1` [6k, (E)-1-(2-hydroxy-4-methoxy-5-(pyrrolidin-1-ylmethyl)phenyl)-3-(4-((4-methylpiperidin-1-yl)methyl)phenyl)prop-2-en-1-one] the IC50 (HeLa cells; [3]) was 15.22 ± 0.08 µM, the IC50 (HeLa cells; [4]) was 15.22 ± 0.08 µM and the “RI (resistance index)” value (HeLa/DDP cells) was 1.13. It also gave an IC50 (HeLa/DDP cells) of 17.3 ± 2.07 µM, an IC50 (H8 cells) of 30.1 ± 0.44 µM and an IC50 (SiHa cells) of 24.83 ± 0.17 µM. The IC50 (VEGFR-2 [1]) was 1670 ± 180 nM and the IC50 (HUVEC cells) was 20.2 ± 1.19 µM.

With `COc1cc(O)c(C(=O)/C=C/c2ccc(CN3CCC(C)CC3)cc2)cc1CN1CCOCC1` [6o, (E)-1-(2-hydroxy-4-methoxy-5-(morpholinomethyl)phenyl)-3-(4-((4-methylpiperidin-1-yl)methyl)phenyl)prop-2-en-1-one] the IC50 (HeLa cells; [3]) was 65.8 ± 1.36 µM, the melting point was 104.2 to 105.4 °C and the IC50 (H8 cells) was 80 ± 8.92 µM. It also gave an IC50 (SiHa cells) of 63.7 ± 2.18 µM.

For `O=C(/C=C/c1ccccc1)c1ccccc1` [Chalcone], the IC50 (HeLa cells; [3]) was 74 ± 4.48 µM, the IC50 (HeLa cells; [4]) was 74 ± 4.48 µM and the “RI (resistance index)” value (HeLa/DDP cells) was 1.23. It also gave an IC50 (HeLa/DDP cells) of 91 ± 6.22 µM, an IC50 (H8 cells) of 77.7 ± 6.85 µM and an IC50 (SiHa cells) of 66.5 ± 2.88 µM. For the same compound, the IC50 (VEGFR-2 [1]) was over 20000 nM and the IC50 (HUVEC cells) was 77.5 ± 4.2 µM.

In the case of `CNC(=O)c1cc(Oc2ccc(C(=O)/C=C/c3cccc(Br)c3)cc2)ccn1` [compound 7], the IC50 (VEGFR-2 [2]) is listed as 720 nM.

In the case of `CNC(=O)c1cc(Oc2ccc(C(=O)/C=C/c3cc(OC)c(OC)c(OC)c3)cc2)ccn1` [compound 8], the “cytotoxic activity relative to sorafenib” value (HepG2 cells; HepG2, MCF-7 and PC-3 cells) is listed as 1.03–6.14 times, the IC50 (HepG2 cells; cytotoxic effect, HepG2 cells) is listed as 560 ± 830 nM and the IC50 (PC-3 cells) is listed as 3.15 ± 0.81 µM. The IC50 (MCF-7 cells) was 3.88 ± 1.03 µM and the IC50 (VEGFR-2 [2]) was 3200 nM.

In the case of `CNC(=O)c1cc(Oc2ccc(C(=O)/C=C/c3ccccc3)cc2)ccn1` [compound 9], the IC50 (VEGFR-2 [2]) is given as 1100 nM.
